Results: the NIST ThermoML archive (doi:10.1021/acs.jced.6b00181)

Assay: xn = mol fraction of the nth substance listed
Conditions: Liquid, Other PVT measurement

C=CC [propene] + CCCCCC
Conditions	mass density [kg/m3]
425 K, 1800 kPa, x1 = 0.1414	494.2
425 K, 3700 kPa, x1 = 0.1414	504.2
425 K, 5100 kPa, x1 = 0.1414	510.4
425 K, 7000 kPa, x1 = 0.1414	517.7
425 K, 10400 kPa, x1 = 0.1414	528.7
425 K, 17300 kPa, x1 = 0.1414	546.6
425 K, 17500 kPa, x1 = 0.1414	547.3
425 K, 20600 kPa, x1 = 0.1414	553.9
425 K, 24100 kPa, x1 = 0.1414	561.4
425 K, 27600 kPa, x1 = 0.1414	567.6
425 K, 30900 kPa, x1 = 0.1414	573.2
425 K, 34300 kPa, x1 = 0.1414	578.9
425 K, 37800 kPa, x1 = 0.1414	584.7
425 K, 41100 kPa, x1 = 0.1414	589.1
425 K, 44600 kPa, x1 = 0.1414	594.3
425 K, 51900 kPa, x1 = 0.1414	603.8
425 K, 54400 kPa, x1 = 0.1414	607.1
425 K, 58600 kPa, x1 = 0.1414	612.3
425 K, 61800 kPa, x1 = 0.1414	615.7
425 K, 63600 kPa, x1 = 0.1414	617.9
425 K, 66700 kPa, x1 = 0.1414	621
500.9 K, 12400 kPa, x1 = 0.1414	449.6
500.9 K, 13900 kPa, x1 = 0.1414	457.6
500.9 K, 20800 kPa, x1 = 0.1414	486.8
500.9 K, 24600 kPa, x1 = 0.1414	500.5
500.9 K, 27500 kPa, x1 = 0.1414	508.9
500.9 K, 31000 kPa, x1 = 0.1414	517.7
500.9 K, 37300 kPa, x1 = 0.1414	531.3
500.9 K, 37900 kPa, x1 = 0.1414	531.3
500.9 K, 41400 kPa, x1 = 0.1414	537.5
500.9 K, 44700 kPa, x1 = 0.1414	543.2
500.9 K, 44800 kPa, x1 = 0.1414	543.5
500.9 K, 47100 kPa, x1 = 0.1414	549
500.9 K, 48100 kPa, x1 = 0.1414	549
500.9 K, 51500 kPa, x1 = 0.1414	554.6
500.9 K, 54900 kPa, x1 = 0.1414	559.9
500.9 K, 58400 kPa, x1 = 0.1414	565.4
500.9 K, 61800 kPa, x1 = 0.1414	569.8
500.9 K, 64600 kPa, x1 = 0.1414	574
500.9 K, 67400 kPa, x1 = 0.1414	577.4
501 K, 7900 kPa, x1 = 0.4466	293.3
501 K, 9200 kPa, x1 = 0.606	230.6
501 K, 9700 kPa, x1 = 0.4466	331
501 K, 10100 kPa, x1 = 0.4466	330.6
501 K, 10700 kPa, x1 = 0.606	272.7
501 K, 12400 kPa, x1 = 0.606	306.1
501 K, 12600 kPa, x1 = 0.4466	363.8
501 K, 17200 kPa, x1 = 0.4466	401.7
501 K, 17300 kPa, x1 = 0.606	362
501 K, 20700 kPa, x1 = 0.606	386.4
501 K, 21900 kPa, x1 = 0.4466	428.7
501 K, 22000 kPa, x1 = 0.4466	433.3
501 K, 24000 kPa, x1 = 0.4466	436.5
501 K, 24400 kPa, x1 = 0.4466	440.8
501 K, 25200 kPa, x1 = 0.606	411.3
501 K, 29000 kPa, x1 = 0.606	429
501 K, 31000 kPa, x1 = 0.606	435.7
501 K, 31200 kPa, x1 = 0.4466	463.6
501 K, 34600 kPa, x1 = 0.4466	473.3
501 K, 37900 kPa, x1 = 0.4466	482.2
501 K, 37900 kPa, x1 = 0.606	455.7
501 K, 44800 kPa, x1 = 0.606	473.6
501 K, 45000 kPa, x1 = 0.4466	497.7
501 K, 51400 kPa, x1 = 0.606	485.9
501 K, 51600 kPa, x1 = 0.4466	509.9
501 K, 57900 kPa, x1 = 0.4466	519.9
501 K, 58400 kPa, x1 = 0.606	500
501 K, 63000 kPa, x1 = 0.606	506.6
501 K, 63200 kPa, x1 = 0.4466	527.6
501 K, 67000 kPa, x1 = 0.606	512.8
501 K, 67200 kPa, x1 = 0.4466	533.2
584.6 K, 29000 kPa, x1 = 0.1414	449.8
584.6 K, 31100 kPa, x1 = 0.1414	456.9
584.6 K, 34700 kPa, x1 = 0.1414	468.2
584.6 K, 37900 kPa, x1 = 0.1414	478
584.6 K, 41400 kPa, x1 = 0.1414	487.3
584.6 K, 44800 kPa, x1 = 0.1414	495.6
584.6 K, 45100 kPa, x1 = 0.1414	496.5
584.6 K, 48100 kPa, x1 = 0.1414	503.4
584.6 K, 51700 kPa, x1 = 0.1414	510.7
584.6 K, 55100 kPa, x1 = 0.1414	517.4
584.6 K, 58400 kPa, x1 = 0.1414	523.9
584.6 K, 61800 kPa, x1 = 0.1414	529
584.6 K, 64200 kPa, x1 = 0.1414	532.9
584.6 K, 67400 kPa, x1 = 0.1414	537.5
